Experimental data as given in US20110039825A1, “LIGANDS OF ALPHA-ADRENOCEPTORS, DOPAMINE, HISTAMINE, IMIDAZOLINE AND SEROTONIN RECEPTORS AND THEIR USE” (Alla Chem, LLC, priority 2007, published 2011).

Experiments:
[1] = target: T1, human D3 receptor (Homo sapiens, UniProt P35462); experiment: radioligand binding to dopamine receptor D3 ([3H] Spiperone); conditions: 10 μM ligand
T1 construct: expressed in transfected cells; host or cells: CHO
From the text: For this purpose sDNA of human D3 receptor is expressed in CHO cells, as it was described in [Sokoloff P, Giros B, Martres M-P, Bouthenet M-L and Schwartz J-C. Molecular cloning and characterization of novel dopamine receptor (D3) as target for neuroleptics. Nature. […] Molecular cloning and characterization of novel dopamine receptor (D3) as target for neuroleptics. Nature. […] Spiperone is used as positive control.

[2] = target: T2, human H2 receptor (Homo sapiens, UniProt P25021); experiment: radioligand binding to histamine receptor H2 ([125I] Aminopotentidine); conditions: 10 μM ligand
T2 construct: expressed in transfected cells; host or cells: CHO-K1
From the text: Proc Natl Acad Sci USA. 87(5): 1658-1662, 1990]. […] Proc Natl Acad Sci USA. 87(5): 1658-1662, 1990]. […] Tiotidine is used as positive control.

[3] = target: T3, human D4.2 receptor (Homo sapiens, UniProt P21917, DEL265-296); experiment: radioligand binding to dopamine receptor D4.2 ([3H] Spiperone); conditions: 10 μM ligand
T3 sequence (P21917 with tags, fused parts or gaps DEL265-296): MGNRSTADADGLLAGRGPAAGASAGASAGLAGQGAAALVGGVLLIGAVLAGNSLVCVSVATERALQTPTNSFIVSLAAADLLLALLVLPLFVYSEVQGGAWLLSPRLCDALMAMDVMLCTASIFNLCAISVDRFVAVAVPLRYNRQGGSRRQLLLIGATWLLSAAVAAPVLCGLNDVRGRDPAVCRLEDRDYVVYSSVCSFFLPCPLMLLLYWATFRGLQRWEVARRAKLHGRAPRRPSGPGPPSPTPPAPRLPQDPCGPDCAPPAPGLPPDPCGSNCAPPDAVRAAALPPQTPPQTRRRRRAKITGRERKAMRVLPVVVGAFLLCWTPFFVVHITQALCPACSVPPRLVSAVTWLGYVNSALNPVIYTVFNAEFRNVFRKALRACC
Experimental: Screening of the disclosed compounds for potential ability to interact with dopamine receptor D4.2 is carried out by method of radioligand binding. […] From the cells transfected in this way membrane species are prepared by homogenization of these cells in glass homogenizer with the subsequent separation of plasmatic membranes from cell nuclei, mitochondrias and cell wreckages by differential centrifugation. […] After incubation samples are filtered in vacuo on glass-microfiber filters G/F (Millipor, USA), filters are washed three times with cold solution of medium and radioactivity is measured by scintillation counter MicroBeta 340 (Perkin Elmer, USA). Nonspecific binding which makes up 10% of the overall binding is determined by incubation of membrane species with radioligand in the presence of 10 μM of Haloperidol.
Spiperone is used as positive control. Tested compounds' binding to the receptor is determined by their ability to displace radioligand and expressed in percent of displacement (% I). Values of % I are calculated according to the following equation:
wherein: TA—is overall radioactivity in the presence of radioligand only, CA—is radioactivity in the presence of radioligand and tested compound and NA—is radioactivity in the presence of radioligand and Haloperidol (10 μM).

[4] = target: T4, human D2S receptor (Homo sapiens, UniProt P14416); experiment: radioligand binding to dopamine receptor D2S ([3H] Spiperone); conditions: 10 μM ligand
T4 construct: expressed in transfected cells; host or cells: CHO
From the text: 7-C. […] For this purpose sDNA of human D2S receptor is expressed in CHO cells, as described in [Hayes G, Biden T J, Selbie L A and Shine J, Structural subtypes of the dopamine D2 receptor are functionally distinct. […] Mol. Endocrinol. […] Mol. Endocrinol. […] Spiperone is used as positive control.

[5] = target: T5, adrenergic receptor α1B (Rattus norvegicus, UniProt P15823); experiment: radioligand binding to adrenergic receptor α1B ([3H] Prazosin); conditions: 10 μM ligand
T5 construct: membrane species from rat liver (rat of Wistar breed) are prepared; from tissue; host or cells: rat (Wistar) liver membranes
T5 sequence (P15823 1-515): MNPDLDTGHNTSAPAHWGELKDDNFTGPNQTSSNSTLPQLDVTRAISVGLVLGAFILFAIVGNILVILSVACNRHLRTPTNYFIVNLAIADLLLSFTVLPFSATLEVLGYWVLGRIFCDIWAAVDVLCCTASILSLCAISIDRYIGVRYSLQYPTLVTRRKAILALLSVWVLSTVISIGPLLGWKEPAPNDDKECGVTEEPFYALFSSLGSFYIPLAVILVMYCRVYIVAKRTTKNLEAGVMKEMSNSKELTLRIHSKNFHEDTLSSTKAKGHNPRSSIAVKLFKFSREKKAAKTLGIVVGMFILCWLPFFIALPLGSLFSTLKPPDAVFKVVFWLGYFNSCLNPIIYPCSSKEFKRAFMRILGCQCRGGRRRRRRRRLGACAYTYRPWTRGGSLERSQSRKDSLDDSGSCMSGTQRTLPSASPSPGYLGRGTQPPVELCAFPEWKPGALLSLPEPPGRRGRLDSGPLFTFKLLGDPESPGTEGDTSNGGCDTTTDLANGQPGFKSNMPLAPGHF
From the text: Species heterogeneity of hepatic α1A-, α1B-, and α1C-subtypes. Biochem Biophys Res Commun. 186:760-7676 1992]. […] Prazosin is used as positive control.

[6] = target: T6, human α1D receptor (Homo sapiens, UniProt P25100); experiment: radioligand binding to adrenergic receptor α1D ([3H] Prazosin); conditions: 10 μM ligand
T6 construct: expressed in transfected cells; host or cells: HEK-293
T6 sequence (P25100 1-572): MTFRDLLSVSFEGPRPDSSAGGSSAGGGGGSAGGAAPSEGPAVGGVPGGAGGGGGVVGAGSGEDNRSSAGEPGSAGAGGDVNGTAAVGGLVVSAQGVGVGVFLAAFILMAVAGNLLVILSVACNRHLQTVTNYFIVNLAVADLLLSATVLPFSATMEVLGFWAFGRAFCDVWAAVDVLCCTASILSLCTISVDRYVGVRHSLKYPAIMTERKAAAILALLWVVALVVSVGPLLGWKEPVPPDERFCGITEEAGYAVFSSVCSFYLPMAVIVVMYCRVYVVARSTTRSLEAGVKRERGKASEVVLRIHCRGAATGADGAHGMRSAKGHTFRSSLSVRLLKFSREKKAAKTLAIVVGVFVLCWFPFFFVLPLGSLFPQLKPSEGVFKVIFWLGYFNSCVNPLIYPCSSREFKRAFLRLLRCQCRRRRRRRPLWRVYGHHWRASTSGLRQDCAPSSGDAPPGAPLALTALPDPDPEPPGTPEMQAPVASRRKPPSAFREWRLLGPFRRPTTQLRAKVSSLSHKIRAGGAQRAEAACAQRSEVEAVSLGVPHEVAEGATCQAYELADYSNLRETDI
From the text: 6-C. […] For this purpose sDNA of human α1D receptor is expressed in HEK-293 cells, as it was described in [T L Theroux, T A Esbenshade, R D Peavy and K P Minneman. Coupling efficiencies of human alpha 1-adrenergic receptor subtypes: titration of receptor density and responsiveness with inducible and repressible expression vectors. Mol. Pharmacol.; 50: 1376-1387, 1996]. […] Prazosin is used as positive control.

[7] = target: T7, recombinant human 5-HT1A (Homo sapiens, UniProt P08908); experiment: radioligand binding to serotonin receptor 5-HT1A ([3H] 8-OH-DPAT); conditions: ligand concentration 1 μM
T7 construct: expressed in transfected cells; host or cells: CHO
T7 sequence (P08908 1-422): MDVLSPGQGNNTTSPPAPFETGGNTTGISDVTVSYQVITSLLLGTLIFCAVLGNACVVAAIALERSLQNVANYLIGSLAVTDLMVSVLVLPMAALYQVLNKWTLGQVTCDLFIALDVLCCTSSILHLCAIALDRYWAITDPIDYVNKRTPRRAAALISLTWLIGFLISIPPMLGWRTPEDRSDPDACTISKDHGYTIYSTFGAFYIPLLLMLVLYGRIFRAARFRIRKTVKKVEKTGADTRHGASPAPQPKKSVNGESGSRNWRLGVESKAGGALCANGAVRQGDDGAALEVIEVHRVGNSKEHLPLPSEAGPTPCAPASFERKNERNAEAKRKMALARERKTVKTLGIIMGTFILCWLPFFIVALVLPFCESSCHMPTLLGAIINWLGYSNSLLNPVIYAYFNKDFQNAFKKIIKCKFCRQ
From the text: J Pharmacol Exp Ther. 306(1): 301-309, 2003]. […] Metergoline is used as positive control.

[8] = target: T8, human H1 receptor (Homo sapiens, UniProt P35367); experiment: radioligand binding to histamine receptor H1 ([3H] Pyrilamine); conditions: 10 μM ligand
T8 construct: expressed in transfected cells; host or cells: CHO-K1
From the text: Biochem Biophys Res Comm. 197(3): 1601-1608, 1993]. […] Biochem Biophys Res Comm. 197(3): 1601-1608, 1993].
Pyrilamine is used as positive control.

[9] = target: T9, recombinant human 5-HT6 receptor (Homo sapiens, UniProt P50406); experiment: radioligand binding to serotonin receptor 5-HT6 ([3H] Lysergic acid diethylamide)
T9 construct: expressed in transfected cells; host or cells: HeLa
From the text: Mol. Pharmacol. 43:320-327, 1993]. […] Methiothepin is used as positive control.

[10] = tested on: imidazoline receptor I2; experiment: radioligand binding to imidazoline receptor I2 ([3H] Idazoxan); set-up: species or system rat; conditions: 10 μM ligand
Experimental: Determination of investigated compounds' binding to imidazoline I2 receptor is carried out according to the method described in [Brown C M, MacKinnon A C, McGrath J C, Spedding M and Kilpatrick A T, a2-Adrenoceptor subtypes and imidazoline-like binding in the rat brain. Br J. Pharmacol. 99:803-809, 1990]. […] Idazoxan is used as positive control.

[11] = target: T10, human 5-HT7 receptor (Homo sapiens, UniProt P34969); experiment: radioligand binding to serotonin receptor 5-HT7 ([3H] Lysergic acid diethylamide); conditions: ligand concentration 1 μM
T10 construct: expressed in transfected cells; host or cells: CHO
From the text: For this purpose sDNA of human 5-HT7 receptor is expressed in CHO cells as it was described in [Shen Y, Monsma F J Jr, Metcalf M A, Jose P A, Hamblin M W, and Sibley DR. […] J. Biol. Chem. 1993, 268, 18200-18204]. […] J. Pharmacol. Exp. Ther. 1994, 268:1403-1410]. […] Methiothepin is used as positive control.

[12] = target: T11, recombinant human 5-HT2A receptor (Homo sapiens, UniProt P28223); experiment: radioligand binding to serotonin receptor 5-HT2A ([3H] Ketanserin)
T11 construct: expressed in transfected cells; host or cells: CHO-K1
Experimental: 9-C. […] J. Neurochem. […] Ketanserin is used as positive control. […] Values of % I is calculated according to the following equation: […]

[13] = target: T12, recombinant human 5-HT2B receptor (Homo sapiens, UniProt P41595); experiment: radioligand binding to serotonin receptor 5-HT2B ([3H] Lysergic acid diethylamide)
T12 construct: expressed in transfected cells; host or cells: CHO-K1
T12 sequence (P41595 whole entry): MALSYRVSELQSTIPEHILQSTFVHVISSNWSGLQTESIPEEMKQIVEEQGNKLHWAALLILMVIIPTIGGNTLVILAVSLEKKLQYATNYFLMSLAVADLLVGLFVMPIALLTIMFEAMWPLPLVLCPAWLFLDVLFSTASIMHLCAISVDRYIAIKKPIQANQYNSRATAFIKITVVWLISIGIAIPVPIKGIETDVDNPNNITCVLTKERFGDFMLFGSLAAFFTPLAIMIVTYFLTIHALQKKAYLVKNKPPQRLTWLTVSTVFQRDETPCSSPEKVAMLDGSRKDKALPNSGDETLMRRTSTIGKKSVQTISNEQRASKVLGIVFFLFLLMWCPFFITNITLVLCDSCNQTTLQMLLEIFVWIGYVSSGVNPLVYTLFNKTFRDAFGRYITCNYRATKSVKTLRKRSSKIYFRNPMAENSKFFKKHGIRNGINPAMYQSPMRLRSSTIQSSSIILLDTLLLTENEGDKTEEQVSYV
Experimental: Screening of the disclosed compounds for potential ability to interact with serotonin receptor 5-HT2A is carried out by method of radioligand binding. For this purpose membrane species are prepared from CHO-K1 cells comprising recombinant human 5-HT2B receptor by homogenization of recombinant cells in glass homogenizer with the subsequent separation of plasmatic membranes from cell nuclei, mitochondrias and cell wreckages by differential centrifugation. […] After incubation the samples are filtered in vacuo on glass-microfiber filters G/F (Millipor, USA), filters are washed three times with cold solution of medium and radioactivity is measured by scintillation counter MicroBeta 340 (Perkin Elmer, USA). […] Ketanserin is used as positive control. The tested compounds' binding to the receptor is determined by their ability to displace the radioligand and is expressed in percent of displacement (% I). Values of % I are calculated according to the following equation:
wherein: TA—is the overall radioactivity in the presence of radioligand only, CA—is the radioactivity in the presence of radioligand and tested compound and NA—is the radioactivity in the presence of radioligand and Serotonin (10 μM).

T11 sequence (P28223 whole entry): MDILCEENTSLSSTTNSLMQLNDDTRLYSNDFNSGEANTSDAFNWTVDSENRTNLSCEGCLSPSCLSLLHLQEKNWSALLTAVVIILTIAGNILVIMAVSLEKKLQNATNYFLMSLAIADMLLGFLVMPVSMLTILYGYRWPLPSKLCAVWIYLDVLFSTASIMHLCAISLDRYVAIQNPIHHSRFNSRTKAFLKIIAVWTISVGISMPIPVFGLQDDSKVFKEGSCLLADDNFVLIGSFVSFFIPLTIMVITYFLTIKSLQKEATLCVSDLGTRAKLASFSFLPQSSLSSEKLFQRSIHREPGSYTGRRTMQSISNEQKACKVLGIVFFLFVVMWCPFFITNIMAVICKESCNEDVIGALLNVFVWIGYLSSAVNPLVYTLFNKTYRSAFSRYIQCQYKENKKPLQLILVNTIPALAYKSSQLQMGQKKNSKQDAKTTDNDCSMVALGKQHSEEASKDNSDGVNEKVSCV
T9 sequence (P50406 whole entry): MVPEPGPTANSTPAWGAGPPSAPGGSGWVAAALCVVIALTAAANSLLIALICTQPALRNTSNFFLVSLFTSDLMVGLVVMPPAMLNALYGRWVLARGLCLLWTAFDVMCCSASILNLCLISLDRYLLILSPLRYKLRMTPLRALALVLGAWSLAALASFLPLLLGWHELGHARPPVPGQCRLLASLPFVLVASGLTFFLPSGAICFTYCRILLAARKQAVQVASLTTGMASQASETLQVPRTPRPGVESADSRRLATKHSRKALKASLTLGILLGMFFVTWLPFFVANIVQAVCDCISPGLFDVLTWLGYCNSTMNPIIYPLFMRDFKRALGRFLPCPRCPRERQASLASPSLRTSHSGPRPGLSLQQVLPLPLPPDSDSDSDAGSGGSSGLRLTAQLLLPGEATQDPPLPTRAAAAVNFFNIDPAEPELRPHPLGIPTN
T2 sequence (P25021 whole entry): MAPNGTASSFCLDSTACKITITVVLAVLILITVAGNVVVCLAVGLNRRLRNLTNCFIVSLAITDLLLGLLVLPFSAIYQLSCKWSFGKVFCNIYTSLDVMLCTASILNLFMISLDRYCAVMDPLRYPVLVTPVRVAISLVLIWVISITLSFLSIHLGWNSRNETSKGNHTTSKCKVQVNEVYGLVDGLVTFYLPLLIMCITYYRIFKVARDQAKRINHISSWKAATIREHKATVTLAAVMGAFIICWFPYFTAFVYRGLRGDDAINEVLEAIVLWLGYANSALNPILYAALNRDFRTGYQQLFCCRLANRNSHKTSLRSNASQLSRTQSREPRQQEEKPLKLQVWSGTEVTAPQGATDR
T8 sequence (P35367 whole entry): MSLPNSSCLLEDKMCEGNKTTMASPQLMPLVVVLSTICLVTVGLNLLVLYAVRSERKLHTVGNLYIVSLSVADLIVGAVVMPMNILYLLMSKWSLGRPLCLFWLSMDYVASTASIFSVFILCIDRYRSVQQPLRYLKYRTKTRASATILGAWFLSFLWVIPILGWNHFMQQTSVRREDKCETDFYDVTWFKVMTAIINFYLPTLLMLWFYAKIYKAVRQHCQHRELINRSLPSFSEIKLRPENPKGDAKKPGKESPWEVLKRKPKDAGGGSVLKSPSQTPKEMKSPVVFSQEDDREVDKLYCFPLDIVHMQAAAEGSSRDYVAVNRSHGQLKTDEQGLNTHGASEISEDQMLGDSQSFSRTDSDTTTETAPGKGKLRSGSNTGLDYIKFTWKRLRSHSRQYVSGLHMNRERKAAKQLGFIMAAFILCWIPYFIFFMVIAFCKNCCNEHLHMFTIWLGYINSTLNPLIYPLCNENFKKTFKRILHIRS
T10 sequence (P34969 whole entry): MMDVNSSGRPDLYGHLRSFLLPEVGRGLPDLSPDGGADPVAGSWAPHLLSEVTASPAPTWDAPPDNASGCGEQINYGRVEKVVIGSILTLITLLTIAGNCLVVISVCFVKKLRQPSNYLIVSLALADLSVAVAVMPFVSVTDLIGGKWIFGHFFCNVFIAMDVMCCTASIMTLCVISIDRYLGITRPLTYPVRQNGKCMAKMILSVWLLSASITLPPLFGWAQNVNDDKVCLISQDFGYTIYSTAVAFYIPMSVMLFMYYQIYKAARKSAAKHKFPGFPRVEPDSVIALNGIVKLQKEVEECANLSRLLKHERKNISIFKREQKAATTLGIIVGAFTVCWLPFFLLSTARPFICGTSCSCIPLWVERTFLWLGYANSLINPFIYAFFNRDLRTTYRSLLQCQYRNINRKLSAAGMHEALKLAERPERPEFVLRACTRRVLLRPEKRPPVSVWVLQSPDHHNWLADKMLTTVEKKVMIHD
T4 sequence (P14416 1-414 isoform P14416-2): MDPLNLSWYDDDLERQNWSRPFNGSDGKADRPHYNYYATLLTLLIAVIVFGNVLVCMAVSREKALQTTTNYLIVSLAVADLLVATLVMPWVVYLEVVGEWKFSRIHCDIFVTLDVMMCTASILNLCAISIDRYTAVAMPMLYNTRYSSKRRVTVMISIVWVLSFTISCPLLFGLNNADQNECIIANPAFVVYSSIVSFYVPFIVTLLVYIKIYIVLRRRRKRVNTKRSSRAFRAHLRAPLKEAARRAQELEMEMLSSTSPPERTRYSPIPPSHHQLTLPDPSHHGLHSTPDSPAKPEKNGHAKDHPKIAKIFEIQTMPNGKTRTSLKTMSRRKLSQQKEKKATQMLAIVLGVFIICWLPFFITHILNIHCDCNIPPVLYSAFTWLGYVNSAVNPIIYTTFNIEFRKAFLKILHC
T1 sequence (P35462 whole entry): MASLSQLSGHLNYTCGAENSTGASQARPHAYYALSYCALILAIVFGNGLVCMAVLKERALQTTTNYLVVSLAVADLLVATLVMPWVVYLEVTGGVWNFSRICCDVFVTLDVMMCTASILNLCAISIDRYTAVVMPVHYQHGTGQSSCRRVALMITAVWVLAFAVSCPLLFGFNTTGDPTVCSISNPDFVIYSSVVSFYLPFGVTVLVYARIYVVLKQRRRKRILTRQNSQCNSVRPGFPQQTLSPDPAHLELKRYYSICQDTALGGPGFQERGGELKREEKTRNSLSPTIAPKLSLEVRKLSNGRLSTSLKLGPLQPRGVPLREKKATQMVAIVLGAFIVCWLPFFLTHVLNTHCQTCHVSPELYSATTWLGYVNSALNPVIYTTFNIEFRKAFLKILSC

Row | SMILES | Dopamine receptor D3, % inhibition [1] [%] | Histamine receptor H2, % inhibition [2] [%] | Dopamine receptor D4.2, % inhibition [3] [%] | Dopamine receptor D2S, % inhibition [4] [%] | α-Adrenoceptor α1B, % inhibition [5] [%] | α-Adrenoceptor α1D, % inhibition [6] [%] | inhibition at 1 µM [7] [%] | Histamine receptor H1, % inhibition [8] [%] | inhibition at 1 µM ([9]; ligand concentration 1 μM, read-out: 5-HT6 % inhibition) [%] | imidazoline I2 receptor % inhibition [10] [%] | inhibition at 1 µM [11] [%] | IC50 [12] [nM] | Ki [12] [nM] | nH 5-HT2A [12] | nH 5-HT2B [13] | IC50 ([13]; read-out: IC50 5-HT2B) [nM] | Ki ([13]; read-out: Ki 5-HT2B) [nM] | IC50 [9] [nM] | Ki [9] [nM] | nH 5-HT6 [9]
1 | Cc1ccc2c(c1)[C@H]1CN(C)CCC[C@@H]1N2CCc1ccc(C)nc1 (relative stereo) [1.6.2(11)] | 36 | 76 | 6 | 31 | 94 | 90 | 55 | 100 | 93 |  |  |  |  |  |  |  |  |  |  | 
2 | Cc1ccc(S(=O)(=O)n2c3c(c4cc(C)ccc42)CN(C)CCC3)cc1.Cl [1.8.1(3)•HCl] |  | 82 |  |  |  | 55 |  | 95 |  | 17 | 99 | 22.5 | 6.43 | 1.01 | 0.784 | 319 | 203 | 34.8 | 15.9 | 1.07
